Results as given in patent EP4483904A1, “POLYOXOMETALATES AS MEMBRANE CARRIERS” (Universität Wien, priority 2023, dated 2025).
“And” between values parts separate entries of the source, which are not always exact repeats. Identical values can stand only once. Like-named read-outs stand apart in the source and are kept apart here.

Legend:
[1] = Transport experiments in CF-loaded zwitterionic EYPC vesicles (CF fluorescence, Hill analysis); type: biochemical; conditions: for cargo transport in CF-loaded vesicles (qualitative): LUVs loaded with CF, added cargo; for onset for transport activity (carrier concentration): vesicles, Fig. 4
Protocol: The dry film was rehydrated with 1 mL buffer (50 mM CF, 10 mM Hepes, pH 7.4 or 50 mM CF, 10 mM Tris, pH 7.4) for 30 min at room temperature, subjected to freeze-thaw cycles (7 times) and extrusions (15 times) through a polycarbonate membrane (pore size 100 nm). Extravesicular components were removed by size exclusion chromatography (NAP-25 column Sephadex G-25 DNA grade) with 10 mM Hepes, 107 mM NaCl, pH 7.4 or 10 mM Hepes, 107 mM NaCl, pH 7.4. Phospholipid concentration was calculated by the Stewart assay. […]
Vesicles stock solutions (5-10 µL) were diluted with the corresponding buffer in a disposable plastic cuvette and gently stirred (total volume 2000 µL, final lipid concentration 13 µM). […] Fluorescence intensities were normalized to fractional emission as: I(t) = (It −I0)/(I∞ −I0) [formula]
Where I0 = It before POM addition and […] = I∞ after lysis. For Hill analysis, It before lysis was defined as transport activity, Y, and plotted against POM concentration, c, and fitted to the Hill equation (2), to afford the activity in absence of POM, Y0, the maximal activity, Ymax, the concentration needed to achieve 50 % of maximal activity, EC50, and the Hill coefficient, n. Y = Y0 + (Ymax −Y0)/(1 + (((EC50)/(c)))^n) [formula]
In the transport measurements, where different carriers (POMs) are tested with the same cargo, the activator efficiency (E) is determined by their capacity to transport the impermeable cargo to the intravesicular region and is characterized by Ymax, its maximal activity, and EC50, the effective activator concentration. An ideal carrier reaches high Ymax at low EC50. To count both factors, the activator efficiency is defined as: E = Ymax (pEC50)/(f) [formula] were pEC50 is the negative logarithm of the EC50, and fa scaling factor, which was set to 20.6 to calibrate the highest (previously known) activation efficiency, E, as 10.
The capability of POMs to act as membrane carriers was explored first in large unilamellar vesicles (LUVs), loaded with carboxyfluorescein (CF). We selected […] representative cationic peptides, heptaarginine (heptaArg), heptalysine (heptaLys), protamine, and polyarginine (polyArg), as test cargos. Inside the LUVs, the CF dye was encapsulated at self-quenching concentrations. With a suitable carrier, heptaArg can be taken up into the vesicles, bind with entrapped CF, and shuttle back to the exterior, spreading the previously quenched CF, and thereby restoring its fluorescence (Fig. 3). In the time-resolved fluorescence experiments, to test whether a POM acts as molecular carrier, the CF emission was continuously monitored during the addition of the inorganic carrier (t = 60 s) and after injection the impermeable heptaArg (t = 120 s). At the end of the experiment (t = 600 s), the surfactant Triton X-100 was added to release all the entrapped CF and allow normalization of the intensity data (Fig. 4a).

protamine = assay: Isothermal titration calorimetry, POM into protamine; type: binding; conditions: 10 mM Mes, pH 5.5, 298.15 K
Protocol: (§1) All experiments were performed with a VP-ITC MicroCalorimeter from MicroCal, Int,. at atmospheric pressure and 298.15 K. Solutions were degassed and thermostatic prior the titration experiments in a ThermoVac accessory. A constant volume of POM ([PVW11]^4- or [SiMoW11]^4-) (10 µL per injection) was injected into the oligopeptide solution (heptaArg, protamine, polyArg or heptaLys) in 10 mM Mes, pH 5.5 to determine the apparent binding affinity of [PVW11]^4- and [SiMoW11]^4- with the oligopeptides. Dilution heats were determined by titration of the POM into buffer and subtracted from the reaction heat. The neat reaction heat was fitted with Origin 7.0 software by using the "one-set-of-sites" model to obtain the complex stability constant (Ka) and molar reaction enthalpy (ΔH°). The free energy (ΔG°) and entropy changes (ΔS°) were obtained according to the relation: ΔG° = - R TInKa = ΔH°-TΔS°.

[2] = Stability investigation by NMR spectroscopy (hydrolysis in buffer/media); type: physicochemical; conditions: for Hydrolysis/Stability pH 7.5: 10 mM Hepes or 10 mM Tris, pH 7.4; for Hydrolysis/Stability pH 7.5 / Hydrolysis/Stability pH 5.5: 107 mM NaCl; for Hydrolysis/Stability pH 5.5: 10 mM Mes
Source text: POMs of the globular Keggin and planar Anderson archetype and with varying charge status from -3 to -8 (Fig. 1) were selected. To offset the known [XW12O40]^n- (X = hetero-ion) hydrolysis propensity in aqueous solution, most pronounced at neutral pH, more highly charged mixed-metal derivatives (Fig. 1,lefthand side) were also included. The latter are obtained by hydrolytic removal of one W=O^4+ unit from the Keggin structure and the subsequent incorporation of an addenda metal to fill the cavity of the monolacunary intermediate. In detail, the following POM anions were studied (as acid or sodium, potassium, or tetraalkylammonium salts), see Fig. 1: [α-P^VW^VI12O40]^3- ([PW12]^3-), [α-Si^IVW^VI12O40]^4- ([SiW12]^4-), [α-Al^IIIW^VI12O40]^5- ([AlW12]^5-), [α-P^VV^VW^VI11O40]^4- ([PVW11]^4-), [α-Si^IVMo^VIW^VI11O40]^4- ([SiMoW11]^4-), [α- HAl^IIIGe^IVW^VI11O39(H2O)]^5- ([GeAlW11]^5-), [{α-P^VW^VI11O39Zr^IV(µ-OH)(H2O)}2]^8- ([(PZrW11)2]^8-), and [Al^III(OH)6Mo^VI6O18]^3- ([AlMo6]^3-). First, their long-term (24 h and longer) stability in aqueous solution (slightly acidic and neutral) was investigated by applying the active NMR nuclei in their composition (see).

polyArg = assay: Isothermal titration calorimetry, POM into polyArg; type: binding; conditions: 10 mM Mes, pH 5.5, 298.15 K
Protocol: as §1

[3] = EYPC (zwitterionic), 13 µM phospholipids, 10 µM heptaLys
[4] = EYPC (zwitterionic), 13 µM phospholipids, 10 µM heptaLys, read-out: EC50
[5] = EYPC vesicles, 0.1 µM polyArg, acidic pH 5.5
[6] = EYPC vesicles, 0.1 µM polyArg, neutral pH 7.4
[7] = EYPC vesicles, 0.1 µM polyArg, neutral pH 7.4, read-out: PolyArg EC50
[8] = EYPC vesicles, 1 µM Protamine, acidic pH 5.5
[9] = EYPC vesicles, 1 µM protamine, neutral pH 7.4
[10] = EYPC vesicles, 1 µM protamine, neutral pH 7.4, read-out: Protamine EC50
[11] = EYPC vesicles, 10 µM heptaArg, neutral pH 7.4, E = Ymax(pEC50/f), f = 20.6
[12] = EYPC vesicles, 10 µM heptaArg, neutral pH 7.4, read-out: HeptaArg EC50
[13] = Nutrient mixture F-12 Ham after incubation for 1 h at 37 °C

Row | EC50 [1, 4] | EC50 [1, 7] | EC50 [1, 10] | EC50 [1, 12] | Hydrolysis/Stability pH 5.5 [2] | Substance | E (activation efficiency) [1, 3] | Ymax [1, 3] | PolyArg E (activation efficiency) [1, 6] | PolyArg Ymax [1, 6] | Protamine E (activation efficiency) [1, 9] | Protamine Ymax [1, 9] | HeptaArg E (activation efficiency) [1, 11] | cargo transport in CF-loaded vesicles (qualitative) [1] | onset for transport activity (carrier concentration) [1] | Protamine Ka/ 10^7 (protamine) | Hydrolysis/Stability pH 7.5 [2] | POM anions with % for parent (active) anion based on signals integration [2, 13] | PolyArg Ka/ 10^7 (polyArg) | further results
1 | 22 µM | 13 µM | 19 µM | 16.5 µM and 17 µM | stable | K4[α-Si^IVMo^VIW^VI11O40]·24H2O [[SiMoW11]^4-] | 4.4 | 54% | 8.6 | 94% | 6.0 | 72% | 5.7 | triggered the desired increase in fluorescence characteristic for cargo transport | around 1 µM | 1.7 ± 0.3 10^7 M-1 | stable | [Si^IVMo^VIW^VI11O40]^4- | 1.6 ± 0.2 10^7 M-1 | PolyArg E (activation efficiency) [1, 5]: 9.7; PolyArg Ymax [1, 5]: 86%; EC50 ([1]; EYPC vesicles, 0.1 µM polyArg, acidic pH 5.5, read-out: PolyArg EC50): 5 µM; Protamine E (activation efficiency) [1, 8]: 7.3; Protamine Ymax [1, 8]: 80%; EC50 ([1]; EYPC vesicles, 1 µM Protamine, acidic pH 5.5, read-out: Protamine EC50): 14 µM; HeptaArg E (activation efficiency) ([1]; EYPC vesicles, 10 µM heptaArg, acidic pH 5.5): 6.6; HeptaArg Ymax ([1]; EYPC vesicles, 10 µM heptaArg, acidic pH 5.5 (10 mM Mes, 107 mM NaCl)): 66%; HeptaArg Ymax ([1]; EYPC vesicles, 10 µM heptaArg, neutral pH 7.4): 66%; POM anions with % for parent (active) anion based on signals integration ([2]; Mes pH 5.5 (time not given)): [Si^IVMo^VIW^VI11O40]^4-; POM anions with % for parent (active) anion based on signals integration ([2]; Tris-HCl pH 7.5 (time not given)): [Si^IVMo^VIW^VI11O40]^4-
2 | 38 µM | 12 µM | 41 µM | 49 µM | stable | K4[α-P^VV^VW^VI11O40]·4H2O [[PVW11]^4-] | 4.3 | 62% | 8.2 | 88% | 5.9 | 88% | 5.3 | triggered the desired increase in fluorescence characteristic for cargo transport | around 1 µM | 25 ± 9 10^7 M-1 | 20 % to [P^VW^VI11O39]^7- and 20 % hydrolyzed to [P^VW^VI11O39]^7 | [P^VW^VI11O39]^7- (coordinated to different alkali and earth alkali metals leading to different shifts) and [P^VV^VW^VI11O40]^4- (16 %) | 3.5 ± 0.6 10^7 M-1 | POM anions with % for parent (active) anion based on signals integration ([2]; D2O): [P^VV^VW^VI11O40]^4-; % of hydrolysis product [P^VW^VI11O39]^7- based on signals integration ([2]; Mes pH 5.5 after 1 day): 1%; POM anions with % for parent (active) anion based on signals integration ([2]; Mes pH 5.5 after 1 day): 99%; % of hydrolysis product [P^VW^VI11O39]^7- based on signals integration ([2]; Mes pH 5.5 after 5 days): 1%; POM anions with % for parent (active) anion based on signals integration ([2]; Mes pH 5.5 after 5 days): 99%; % of hydrolysis product [P^VW^VI11O39]^7- based on signals integration ([2]; Mes pH 5.5 freshly prepared): 1%; POM anions with % for parent (active) anion based on signals integration ([2]; Mes pH 5.5 freshly prepared): 99%; POM anions with % for parent (active) anion based on signals integration ([2]; Nutrient mixture F-12 Ham freshly prepared): [P^VW^VI11O39]^7- (coordinated to different alkali and earth alkali metals leading to different shifts) and [P^VV^VW^VI11O40]^4- (43 %); POM anions with % for parent (active) anion based on signals integration ([2]; Tris-HCl pH 7.5 after 1 day): [P^VW^VI11O39]^7- and [P^VV^VW^VI11O40]^4- (71 %); POM anions with % for parent (active) anion based on signals integration ([2]; Tris-HCl pH 7.5 after 5 days): [P^VW^VI11O39]^7- and [P^VV^VW^VI11O40]^4- (68 %); POM anions with % for parent (active) anion based on signals integration ([2]; Tris-HCl pH 7.5 freshly prepared): [P^VW^VI11O39]^7- and [P^VV^VW^VI11O40]^4- (81 %); hydrolysis on long time scales at neutral pH ([2]; neutral pH, after 24 h): ca. 20%
